In one assay the target is SnocOBP9WT (Sirex noctilio, UniProt A0A857N3E7). The assay is described as follows: Fluorescence competitive binding assay with 1-NPN probe, wild-type protein.
The next assay concerns the target SnocOBP9M54A (Sirex noctilio, UniProt A0A857N3E7, M75A). Kind of assay: Fluorescence binding assay with 1-NPN probe, mutant M54A. The text has this: (§1) To measure the binding affinity of the ligand to recombinant SnocOBP9, 1-NPN was selected as a fluorescent probe. Eleven host volatiles ((−)-Limonene, (+)-Limonene, 3-Carene, Alpha-Pinene and Beta-Pinene, Camphene, Beta-Myrcene, Beta-Ocimene, Sabinene, Hexanal and Eucalyptol), three insect pheromones ((Z)-3-Decen-ol, (Z)-4-Decen-ol and (E, E)-2,4-decadienal) and six symbiotic fungal volatile (Cyclopentanone, Geraniol 2-Hexene, (−)-Globulol, Linalol and 1-(3-ethylphenyl)ethenone) compounds were selected to bind with recombinant SnocOBP9. A multi-scan Spectrum Molecular Device Spectra Max i3 Fluorescence Spectrophotometer (Thermo Scientific, Wilmington, DE, USA) was used to conduct fluorescence competitive binding assays with an excitation wavelength of 337 nm. The emission spectra were recorded between 390 and 500 nm. The parameters were selected such that the slit widths for both excitation and emission were 10 nm. […] Intensity values corresponding to the maximum fluorescence emission were plotted against the free ligand concentrations to calculate the dissociation constant. Assuming the activity of the protein was 100%, and the stoichiometric ratio between the protein and the ligand was 1:1 when saturated, the bound ligand was determined from the fluorescence intensity value. The K1-NPN value was calculated by linearizing the curve using Scatchard plots. […]

The next assay has as its target SnocOBP9F71A (Sirex noctilio, UniProt A0A857N3E7, F92A). The assay is described as follows: Fluorescence binding assay with 1-NPN probe, mutant F71A.
Source text: as §1

The next assay deals with SnocOBP9F57A (Sirex noctilio, UniProt A0A857N3E7, F78A). The assay is described as follows: Fluorescence binding assay with 1-NPN probe, mutant F57A.
Source text: as §1

For another assay, the target named is SnocOBP9L116A (Sirex noctilio, UniProt A0A857N3E7, L137A). The assay is described as follows: Fluorescence binding assay with 1-NPN probe, mutant L116A.
Source text: as §1

A further assay addresses SnocOBP9F74A (Sirex noctilio, UniProt A0A857N3E7, F95A). The assay is described as follows: Fluorescence binding assay with 1-NPN probe, mutant F74A.
Source text: as §1

[1] abbreviates: protein and 1-NPN both 2 μM, ligand titrated to 1–20 μM, read-out: IC50.

“Also recorded” adds a separate entry of the source. Like-named read-outs stand apart in the source and are kept apart here.

SnocOBP9L116A, sequence (A0A857N3E7 entry or part of it L137A): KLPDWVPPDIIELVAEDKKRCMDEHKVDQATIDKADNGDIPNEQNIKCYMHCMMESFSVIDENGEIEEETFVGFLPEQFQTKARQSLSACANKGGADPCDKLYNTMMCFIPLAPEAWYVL
SnocOBP9M54A, sequence (A0A857N3E7 entry or part of it M75A): as the sequence (A0A857N3E7 entry or part of it L137A) above, with M54A, A116L counted along it
SnocOBP9F74A, sequence (A0A857N3E7 entry or part of it F95A): as the sequence (A0A857N3E7 entry or part of it L137A) above, with F74A, A116L counted along it
SnocOBP9F71A, sequence (A0A857N3E7 entry or part of it F92A): as the sequence (A0A857N3E7 entry or part of it L137A) above, with F71A, A116L counted along it
SnocOBP9WT, sequence (A0A857N3E7 entry or part of it): as the sequence (A0A857N3E7 entry or part of it L137A) above, with A116L counted along it
SnocOBP9F57A, sequence (A0A857N3E7 entry or part of it F78A): as the sequence (A0A857N3E7 entry or part of it L137A) above, with F57A, A116L counted along it

For the compound `CC1=CCC2CC1C2(C)C` (stereo not drawn) [Alpha-Pinene], the IC50 at SnocOBP9WT is > 20 µM.

Regarding `C=C/C(C)=C/CC=C(C)C` [Beta-Ocimene], on SnocOBP9WT (setting [1]), the IC50 is > 20 µM.

Take `C=CC(=C)CCC=C(C)C` [Beta-Myrcene]: the IC50 on SnocOBP9WT (setting [1]) was > 20 µM.

Consider `O=C1CCCC1` [Cyclopentanone], for which the half-maximal inhibitory concentration (IC50) on SnocOBP9WT (setting [1]) was > 20 µM.

On to `CC1=CCC2C(C1)C2(C)C` (stereo not shown) [3-Carene], for which, on SnocOBP9WT (setting [1]), the IC50 was > 20 µM.

As for `CCCCC/C=C/C=C/C=O` [(E, E)-2,4-Decadienal], the IC50 on SnocOBP9WT (setting [1]) is > 20 µM.

On SnocOBP9WT, `C=C(C)[C@@H]1CC=C(C)CC1` [(−)-Limonene] yielded a concentration for half-maximal inhibition (IC50) of 6.95 ± 0.61 µM and a Ki of 5.5 ± 0.49 µM.

As to `c1ccc(Nc2cccc3ccccc23)cc1` [1-NPN, N-phenyl-1-naphthylamine, reference compound], the Kd on SnocOBP9M54A was 7.61 ± 0.92 µM; at SnocOBP9F71A it was 1.27 ± 2.42 µM; on SnocOBP9F57A, 4.49 ± 0.82 µM; on SnocOBP9WT, 6.87 ± 0.73 µM; on SnocOBP9L116A it was 17.5 ± 2.41 µM; at SnocOBP9F74A, 18.4 ± 1.66 µM.

For the compound `CC12CCC(CC1)C(C)(C)O2` [Eucalyptol], the IC50 on SnocOBP9WT (setting [1]) was > 20 µM.

Consider `C=C(C)[C@H]1CC=C(C)CC1` [(+)-Limonene], for which, on SnocOBP9WT, the IC50 is 6.09 ± 1.43 µM and the affinity corresponds to a Ki of 4.87 ± 0.94 µM.

For `CCc1cccc(C(C)=O)c1` [1-(3-ethylphenyl)ethenone], the IC50 at SnocOBP9WT (setting [1]) was > 20 µM.

With `CCCCC/C=C\CCCO` [(Z)-4-Decen-ol], at SnocOBP9WT (setting [1]), the half-maximal inhibitory concentration (IC50) was > 20 µM.

With `C=C1C2CCC(C2)C1(C)C` (stereo not shown) [Camphene], the IC50 at SnocOBP9WT (setting [1]) was > 20 µM.

Regarding `C=C1CCC2(C(C)C)CC12` (stereo not shown) [Sabinene], the IC50 at SnocOBP9WT (setting [1]) was > 20 µM.

As for `CCCCCC/C=C\CCO` [Z3D, (Z)-3-decen-ol], the “binding affinity (fluorescence competitive assay)” value on SnocOBP9M54A (mutant MET54 to ALA, Ki could not be calculated) was “no binding affinity; also recorded: never decreased below 50%”; on SnocOBP9F71A (mutant PHE71 to ALA, Ki could not be calculated) it was “no binding affinity; also recorded: never decreased below 50%”; on SnocOBP9L116A (mutant LEU116 to ALA, Ki could not be calculated), “no binding affinity; also recorded: never decreased below 50%”; on SnocOBP9F74A (mutant PHE74 to ALA, Ki could not be calculated) it was “no binding affinity; also recorded: never decreased below 50%”. Also, the Ki at SnocOBP9F57A was found to be 5.61 ± 0.5 µM; on SnocOBP9WT (protein and 1-NPN both 2 μM, ligand titrated to 1–20 μM, read-out: Ki), 1.53 ± 0.09 µM. Besides, the IC50 at SnocOBP9WT (setting [1]) worked out at 1.92 ± 0.14 µM.

`C=CC(C)(O)CCC=C(C)C` (stereo not shown) [Linalool]: the IC50 on SnocOBP9WT is > 20 µM.

`CC=CCCC` [2-Hexene]: the IC50 on SnocOBP9WT (setting [1]) was > 20 µM.

For `CCCCCC=O` [Hexanal], the IC50 at SnocOBP9WT was > 20 µM.

With `C[C@@H]1CC[C@@H]2[C@@H]1[C@H]1[C@@H](CC[C@@]2(C)O)C1(C)C` [(−)-Globulol], the 50% inhibitory concentration (IC50) on SnocOBP9WT (setting [1]) is > 20 µM.

On to `CC(C)=CCC/C(C)=C/CO` [Geraniol], for which the IC50 at SnocOBP9WT was > 20 µM.

Take `C=C1CCC2CC1C2(C)C` (stereo not drawn) [Beta-Pinene]: the IC50 on SnocOBP9WT was > 20 µM.
